# Source: US20200297711A1, “PHARMACEUTICAL COMPOSITION COMPRISING FGFR SELECTIVE TYROSINE KINASE INHIBITOR” (priority 2017, published 2020)
# What was measured:
# [1] = tested on: stomach cancer, lung cancer, bladder cancer, endometrial cancer, bile duct cancer, breast cancer; details: endometrial cancer (PTL 1), bile duct cancer (PTL 2), breast cancer (PTL 3); cited from earlier work
# [2] = Dose escalation study: tolerability and safety (DLT, MTD, treatment emergent adverse events) of orally administered Compound A 1.5 succinate in patients with solid tumor; type: in vivo
# Experimental: The following study was carried out in order to evaluate tolerability and safety when Compound A 1.5 succinate was orally administered to patients with solid tumor. We attempted to determine the maximum tolerated dose (MTD) by evaluating the dose limiting toxicity (DLT) when Compound A 1.5 succinate was orally administered to patients with solid tumor. Each dose in Examples is represented as a dose of Compound A in free form.
# A Modified Toxicity Probability Interval (mTPI) design was employed to determine the MTD of Compound A. Each subject was assigned a dose of Compound A in accordance with the rules of the mTPI design based on a target dose-limiting toxicity (DLT) rate of 25% and the corresponding three toxicity probability intervals that was defined as 20 to 30% (proper dosing), 0 to 20% (underdosing) and 30 to 100% (overdosing). The entire dose assignment decision rule can be precalculated under the mTPI design and presented in two-way table as below.
# In order to evaluate the PK when administered as a single dose, a single dose of Compound A for each treatment group (at the corresponding dosage for that group) was administered on Day 1. Compound A was administered when fasted, immediately after waking up with at least 10 hours fasting. Taking any meal was prohibited for 2 hours after administration and only drinking water was allowed.
# Cycle 1 was started between 8 and 10 days after dosing in Cycle 0 and Compound A was administered continuously once daily. Compound A was administered at least 2 hours after breakfast, and any food intake was prohibited for 1 hour after administration. However, on Day 8 of Cycle 1, Compound A was administered immediately after waking up while the subject was fasted after at least 10 hours of overnight fasting in order to evaluate the PK. Taking any meals was prohibited for 2 hours after administration and only drinking water was allowed.
# • (1) Grade 4 neutropenia that persists for more than 7 days or febrile neutropenia • (2) Grade 4 thrombocytopenia or Grade 3 thrombocytopenia that requires blood transfusion • (3) Any Grade 3 or higher non-hematological toxicity with the exception of: • a) Abnormal clinical laboratory values with no clinical significance. • b) Any events which can be managed and controlled to Grade 2 or less by maximal medical management. • (4) New calcification that is considered clinically significance in such as soft tissue, kidney, intestine, heart or lung confirmed by images • (5) Hyperphosphatemia defined as follows • a) >7 mg/dL>7d despite phosphate lowering therapies • b) >9 mg/dL despite phosphate lowering therapies. • (6) Development of any toxicity that is considered to be related to Compound A and where treatment interruption for 8 days or more from Cycle 0 to Cycle 1 is necessary.
# The MTD was not defined and the recommended dose was determined to be 140 mg once daily.
# [3] = tested on: FGFR2-fusion gene positive intrahepatic cholangiocarcinoma; test: Anti-tumor activity, tumor size, patient; type: in vivo, human; details: 30 mg once daily, one patient, FGFR2-fusion gene positive (78%)
# Experimental: When Compound A was administered once daily at 30 mg to a patient with FGFR2-fusion gene positive (78%) intrahepatic cholangiocarcinoma, the tumor size reduced by about 9%.
smiles,measurement,setting,value
"CNC(=O)n1ccc2cc(Oc3ccnc(NC(=O)c4ccc(C5CCN(CCO)CC5)cc4)c3)c(OCCOC)cc21 [Compound A, 5-((2-(4-(1-(2-hydroxyethyl)piperidin-4-yl)benzamide)pyridin-4-yl)oxy)-6-(2-methoxyethoxy)-N-methyl-1H-indole-1-carboxamide]",cell growth suppressing activity,[1],has a cell growth suppressing activity
same,death or adverse events leading to study drug withdrawal,[2]; all cohorts,No death or adverse events leading to study drug withdrawal were reported
same,"ALP increased, Any Gr, n (%)","[2]; human, in vivo",3 (13)
same,"AST increased, Any Gr, n (%)","[2]; human, in vivo",4 (17)
same,"ATL increased, Any Gr, n (%)","[2]; human, in vivo",6 (25)
same,"ATL increased, ≥Gr3, n (%)","[2]; human, in vivo",2 (8)
same,"Anaemia, Any Gr, n (%)","[2]; human, in vivo",3 (13)
same,"Constipation, Any Gr, n (%)","[2]; human, in vivo",2 (8)
same,"Creatinine increased, Any Gr, n (%)","[2]; human, in vivo",9 (38)
same,"Decreased appetite, Any Gr, n (%)","[2]; human, in vivo",2 (8)
same,"Decreased appetite, ≥Gr3, n (%)","[2]; human, in vivo",1 (4)
same,"Diarrhoea, Any Gr, n (%)","[2]; human, in vivo",6 (25)
same,"Dysgeusia, Any Gr, n (%)","[2]; human, in vivo",3 (13)
same,"Hyperphosphatemia, Any Gr, n (%)","[2]; human, in vivo",9 (38)
same,"Lipase increased, Any Gr, n (%)","[2]; human, in vivo",5 (21)
same,"Lymphocyte count decreased, Any Gr, n (%)","[2]; human, in vivo",2 (8)
same,"Malaise, Any Gr, n (%)","[2]; human, in vivo",2 (8)
same,"Nausea, Any Gr, n (%)","[2]; human, in vivo",5 (21)
same,"Neutrophil count decreased, Any Gr, n (%)","[2]; human, in vivo",2 (8)
same,"Neutrophil count decreased, ≥Gr3, n (%)","[2]; human, in vivo",1 (4)
same,"Onychomadesis, Any Gr, n (%)","[2]; human, in vivo",2 (8)
same,"PPE syndrome, Any Gr, n (%)","[2]; human, in vivo",4 (17)
same,"Retinal detachment, Any Gr, n (%)","[2]; human, in vivo",3 (13)
same,"Stomatitis, Any Gr, n (%)","[2]; human, in vivo",2 (8)
same,"Vomiting, Any Gr, n (%)","[2]; human, in vivo",3 (13)
same,"Vomiting, ≥Gr3, n (%)","[2]; human, in vivo",1 (4)
same,"White blood cell count decreased, Any Gr, n (%)","[2]; human, in vivo",2 (8)
same,adverse events leading to dose interruptions: anorexia,"[2]; human, in vivo",2 patients
same,adverse events leading to dose interruptions: common cold,"[2]; human, in vivo",1 patient
same,adverse events leading to dose interruptions: macular edema,"[2]; human, in vivo",1 patient
same,adverse events leading to dose interruptions: nausea,"[2]; human, in vivo",3 patients
same,adverse events leading to dose interruptions: neutrophil count decreased,"[2]; human, in vivo",1 patient
same,adverse events leading to dose interruptions: palmar-plantar erythrodysesthesia syndrome,"[2]; human, in vivo",1 patient
same,adverse events leading to dose interruptions: pyrexia,"[2]; human, in vivo",2 patients
same,adverse events leading to dose interruptions: vomiting,"[2]; human, in vivo",2 patients
same,adverse events leading to dose reductions: ALT increased,"[2]; human, in vivo",2 patients
same,adverse events leading to dose reductions: AST increased,"[2]; human, in vivo",1 patient
same,adverse events leading to dose reductions: palmar-plantar erythrodysesthesia syndrome,"[2]; human, in vivo",2 patients
same,dose limiting toxicity (DLT),"[2]; human, in vivo",one patient at 180 mg dosing experienced the DLT (Grade 3 AST/ALT increased)
same,recommended dose,"[2]; human, in vivo",140 mg
same,relation of serious adverse events to study drug,"[2]; human, in vivo",none of them were considered to be related to Compound A
same,maximum tolerated dose (MTD),[2]; once-daily dosing up to 180 mg,not defined
same,tumor size reduction,[3],about 9%
